Assay results from ChEMBL document CHEMBL5104182, “Design and Synthesis of a 2-Amino-pyridine Derivative as a Potent CDK8 Inhibitor for Anti-colorectal Cancer Therapy” (J Med Chem, 2022).

What was measured:
[1] = Cytotoxicity against human GES1 cells assessed as cell viability incubated for 48 hrs by MTT assay; format: toxicity, cell-based
[2] = system: HT-29; assay: Antiproliferative activity against human HT-29 cells assessed as cell viability incubated for 48 hrs by MTT assay; format: functional
[3] = system: HCT-116; assay: Antiproliferative activity against human HCT-116 cells assessed as cell viability incubated for 48 hrs by MTT assay; format: functional
[4] = system: SW480; assay: Antiproliferative activity against human SW480 cells assessed as cell viability incubated for 48 hrs by MTT assay; format: functional
[5] = system: CT26; assay: Antiproliferative activity against […] cells assessed as cell viability incubated for 48 hrs by MTT assay; format: functional; conditions: Mus musculus
[6] = target: T1, Cyclin-dependent kinase 8 (Homo sapiens, UniProt P49336); conditions: dose 200.0 nM
[7] = target: T1, Cyclin-dependent kinase 8; assay: Inhibition of CDK8 (unknown origin) assessed as inhibition rate

T1 sequence (P49336 whole entry): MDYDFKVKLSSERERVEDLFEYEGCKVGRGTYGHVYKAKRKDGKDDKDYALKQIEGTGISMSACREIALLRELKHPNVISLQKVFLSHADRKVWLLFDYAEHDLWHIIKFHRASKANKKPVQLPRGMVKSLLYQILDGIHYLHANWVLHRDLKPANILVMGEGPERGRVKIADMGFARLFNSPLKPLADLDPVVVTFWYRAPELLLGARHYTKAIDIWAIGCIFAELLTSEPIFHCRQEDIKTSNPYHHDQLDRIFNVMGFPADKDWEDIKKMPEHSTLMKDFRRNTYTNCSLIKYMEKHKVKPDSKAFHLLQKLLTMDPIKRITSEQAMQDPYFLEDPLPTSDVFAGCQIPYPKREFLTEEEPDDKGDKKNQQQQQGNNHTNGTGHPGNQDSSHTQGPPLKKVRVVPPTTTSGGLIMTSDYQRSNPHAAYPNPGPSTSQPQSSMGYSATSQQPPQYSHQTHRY

SMILES | GI50 at 48 h [1] [µM] | GI50 [2] [µM] | GI50 [3] [µM] | GI50 [4] [µM] | GI50 [5] [µM] | inhibition [6] [%] | IC50 [7] [nM]
Nc1ccc(Oc2cccc(NC(=O)Nc3cccc(Br)c3)c2)cn1 | > 100 | 50 | 21.3 | 29.6 | 44.5 |  | 
Nc1ccc(Sc2ccc(NC(=O)Nc3cccc(C(F)(F)F)c3)cc2)cn1 | > 100 | 16.7 | 43.6 | 8.2 | 10.3 |  | 
Nc1ccc(Oc2ccc(NC(=O)Nc3cccc(Br)c3)cc2)cn1 | > 100 | > 100 | > 100 | 14 | 35.6 |  | 
Nc1ccc(Oc2ccc(NC(=O)Nc3ccc(F)c(C(F)(F)F)c3)cc2)cn1 | 52.5 | 8.5 | 11.2 | 15.5 | 7.4 |  | 
O=C(Nc1ccc(Oc2cnc3[nH]ccc3c2)cc1)Nc1cccc(C(F)(F)F)c1 |  | 2.1 |  | 1.9 | 5.3 |  | 
O=C(Nc1ccc(Oc2cnc3[nH]ccc3c2)cc1)Nc1cccc(Cl)c1 |  | 41.1 | 90.1 | 30.7 | 20.9 |  | 
Cc1ccc(NC(=O)Nc2ccc(Oc3cnc4[nH]ccc4c3)cc2)cc1C(F)(F)F | 24 | 39.8 | > 100 | 30.1 | 55.2 |  | 
O=C(Nc1cccc(Oc2cnc3[nH]ccc3c2)c1)Nc1cccc(C(F)(F)F)c1 | 40.7 | 1.1 | 8 | 2.5 | 8.7 |  | 
Cc1ccc(NC(=O)Nc2cccc(Oc3ccc(N)nc3)c2)cc1 | > 100 | 19 | > 100 | > 100 | > 100 |  | 
Cc1cccc(NC(=O)Nc2ccc(Oc3ccc(N)nc3)cc2)c1 | > 100 | 59.4 | 37.4 | 12.5 | > 100 |  | 
Nc1ccc(Oc2ccc(NC(=O)Nc3cccc(Cl)c3)cc2)cn1 | 65.5 | 8.5 | 12.5 | 13.2 | > 100 |  | 
Cc1ccc(NC(=O)Nc2cccc(Oc3ccc(N)nc3)c2)cc1Cl | > 100 | > 100 | > 100 | > 100 | > 100 |  | 
Nc1ccc(Oc2cccc(NC(=O)Nc3ccc(F)c(C(F)(F)F)c3)c2)cn1 | 39.1 | 7.7 | 7.4 | 12.8 | 25.5 |  | 
Cn1cc(-c2ccc(-c3cncc(Cl)c3N3CCC4(CCNC4=O)CC3)cc2)cn1 | 42.7 | 7.8 | 9.6 | 10.4 | 11.3 | 79 | 38.5
Nc1ccc(Oc2cccc(NC(=O)Nc3ccc(F)c(Cl)c3)c2)cn1 | 31.3 | 19.1 | 4 | 17.9 | 23.5 |  | 
